# Measurements as given in BindingDB's records for patent US10676479 (Novartis AG, 2020).
# Target: Polycomb protein EED (Homo sapiens, UniProt O75530)
# Experiment: EED-H3K27Me3 Peptide Competition Binding Assay by AlphaScreen
# Experimental: Then 4 μL of detection beads mix was added to the plate and incubate in the dark at the rt for 1 h. The final concentration of donor and acceptor beads was 10 μg/mL for each. […] The data were then fit to a dose response equation using the program Helios (Novartis) to get the IC50 values. […] Compounds were diluted as described in the preceding section, and the assay was performed by adding 12 μL of 10 nM biotin-miniPEG-His6 peptide in the above buffer and incubating for 20 min at rt prior to addition of the beads to 10 μg/mL each. The plates were then incubated for 1 h at rt in dark before being read on EnVison.
# Sequence of Polycomb protein EED (O75530 whole entry): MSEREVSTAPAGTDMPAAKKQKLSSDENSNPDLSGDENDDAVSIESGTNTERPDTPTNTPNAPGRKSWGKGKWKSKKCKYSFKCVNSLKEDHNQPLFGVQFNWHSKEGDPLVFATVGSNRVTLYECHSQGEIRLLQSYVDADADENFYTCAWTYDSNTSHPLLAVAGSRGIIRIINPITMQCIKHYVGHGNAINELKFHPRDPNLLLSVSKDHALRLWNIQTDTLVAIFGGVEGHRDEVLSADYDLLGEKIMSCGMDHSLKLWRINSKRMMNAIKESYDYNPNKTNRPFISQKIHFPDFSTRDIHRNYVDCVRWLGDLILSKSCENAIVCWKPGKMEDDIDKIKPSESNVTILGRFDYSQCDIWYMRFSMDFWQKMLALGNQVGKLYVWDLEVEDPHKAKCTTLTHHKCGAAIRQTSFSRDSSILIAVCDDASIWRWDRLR
row,IC50 [nM],SMILES
1,7,"Cc1ncccc1-c1cnc(NCc2c(F)ccc3c2CCO3)n2cnc(C(=O)NC3COC3)c12 [US10676479, Example 106]"
2,24.9,"CCN1CCN(c2ccc(-c3cnc(NCc4c(F)ccc5c4CCO5)n4cnc(C#N)c34)cn2)CC1 [US10676479, Example 81]"
3,8.1,"CS(=O)(=O)c1ccc(-c2cnc(NCc3c(F)ccc4c3CCO4)n3cnc(-c4ccccc4)c23)cc1 [US10676479, Example 110]"
